According to patent US7666890B2, “Synthesis and herbicidal activity of 1- (2-substituted benzo[d]thiazol-5-yl)-1H-1,2,4-triazol-5(4H)-one derivatives” (Huazhong Normal University, priority 2007, dated 2010):

Legend:
Assay in all cases: Test of herbicidal activities (greenhouse pot method)
Assay type in all cases: in vivo
Details in all cases: single dose 300 g ai./h, treated before/after germination, 15 days later, greenhouse pot
Setaria viridis = tested on: Setaria viridis
Method in brief: (§1)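 Greenhouse pot test at a single dose of 300 g ai./h, applied by spray tower pre- or post-emergence, with grasses at the 2-leaf stage, in triplicate with a blank control. Plants were kept at 15–30 °C. Inhibition was graded after 15 days: A 90–100%, B 80–<90%, C 60–<80%, D 50–<60%, E <50%.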

Amaranthus retroflexus = tested on: Amaranthus retroflexus
Method in brief: as §1

Brassica juncea = tested on: Brassica juncea
Method in brief: as §1

Digiatria sanguinalis = tested on: Digiatria sanguinalis
Method in brief: as §1

Echinochloa crusgalli = tested on: Echinochloa crusgalli
Method in brief: as §1

Chenopodium album = tested on: Chenopodium album
Method in brief: as §1

Compound	Herbicidal activity Setaria viridis (inhibition level) (Setaria viridis)	Herbicidal activity Amaranthus retroflexus (inhibition level) (Amaranthus retroflexus)	Herbicidal activity Brassica juncea (inhibition level) (Brassica juncea)	Herbicidal activity Digiatria sanguinalis (inhibition level) (Digiatria sanguinalis)	Herbicidal activity Echinochloa crusgalli (inhibition level) (Echinochloa crusgalli)	Herbicidal activity Chenopodium album (inhibition level) (Chenopodium album)
CSc1nc2cc(-n3nc(C)n(C(F)F)c3=O)c(Br)cc2s1 [Compound 79]	B (80 ≦ B < 90%)	B (80 ≦ B < 90%)	B (80 ≦ B < 90%)	A (90 ≦ A ≦ 100%)	B (80 ≦ B < 90%)	C (60 ≦ C < 80%)
CCSc1nc2cc(-n3nc(C)n(C(F)F)c3=O)c(Br)cc2s1 [Compound 80]	A (90 ≦ A ≦ 100%)	A (90 ≦ A ≦ 100%)	A (90 ≦ A ≦ 100%)	B (80 ≦ B < 90%)	A (90 ≦ A ≦ 100%)	E (E < 50%)
CCCSc1nc2cc(-n3nc(C)n(C(F)F)c3=O)c(Br)cc2s1 [Compound 81]	B (80 ≦ B < 90%)	A (90 ≦ A ≦ 100%)	A (90 ≦ A ≦ 100%)	D (50 ≦ D < 60%)	B (80 ≦ B < 90%)	B (80 ≦ B < 90%)
CCOC(=O)CSc1nc2cc(-n3nc(C)n(C(F)F)c3=O)c(Br)cc2s1 [Compound 82]	A (90 ≦ A ≦ 100%)	A (90 ≦ A ≦ 100%)	B (80 ≦ B < 90%)	A (90 ≦ A ≦ 100%)	A (90 ≦ A ≦ 100%)	C (60 ≦ C < 80%)
CCCCCCSc1nc2cc(-n3nc(C)n(C(F)F)c3=O)c(F)cc2s1 [Compound 83]	A (90 ≦ A ≦ 100%)	A (90 ≦ A ≦ 100%)	C (60 ≦ C < 80%)	D (50 ≦ D < 60%)	B (80 ≦ B < 90%)	A (90 ≦ A ≦ 100%)
CCSc1nc2cc(-n3nc(C)n(C(F)F)c3=O)c(F)cc2s1 [Compound 84]	B (80 ≦ B < 90%)	B (80 ≦ B < 90%)	C (60 ≦ C < 80%)	A (90 ≦ A ≦ 100%)	A (90 ≦ A ≦ 100%)	A (90 ≦ A ≦ 100%)
CCCCCCSc1nc2cc(-n3nc(C)n(C(F)F)c3=O)c(Cl)cc2s1 [Compound 85]	A (90 ≦ A ≦ 100%)	B (80 ≦ B < 90%)	B (80 ≦ B < 90%)	A (90 ≦ A ≦ 100%)	B (80 ≦ B < 90%)	B (80 ≦ B < 90%)
CCSc1nc2cc(-n3nc(C)n(C(F)F)c3=O)c(Cl)cc2s1 [Compound 86]	A (90 ≦ A ≦ 100%)	A (90 ≦ A ≦ 100%)	A (90 ≦ A ≦ 100%)	A (90 ≦ A ≦ 100%)	A (90 ≦ A ≦ 100%)	B (80 ≦ B < 90%)
CCOC(=O)C(C)Sc1nc2cc(-n3nc(C)n(C(F)F)c3=O)c(Br)cc2s1 (stereo not drawn) [Compound 87]	A (90 ≦ A ≦ 100%)	B (80 ≦ B < 90%)	A (90 ≦ A ≦ 100%)	B (80 ≦ B < 90%)	B (80 ≦ B < 90%)	B (80 ≦ B < 90%)
